Source: patent US20040086901A1, “Database for analyzing gene function and method of analyzing gene function by dspa” (priority 2000, published 2004)
Non-standard residues stand in square brackets, D forms with d. Residues, ends and D or L forms follow the SMILES beside them. Nle = CCCC[C@H](N)C(=O)O

Columns and labels:
Format in all cases: cell-based, mouse
[1] = tested on: NIH3T3 cells overexpressing Cip-1; assay: MTT cell viability, Cip-1 overexpressing cells vs parental line; settings: Cip-1 high-expressing cells / parental cell line, 3 to 4 days
Description: (§1) With regard to the function-known genes, the genes shown in the left column of Table 2 were used. With regard to the drugs, those shown in Table 1 were dissolved in DMSO to an extent of 100-fold of the maximum concentration for the search of the drugs and used. With regard to the cells, incubated NIH3T3 or ras-NIH3T3 cells were used.
(§2) Full-length cDNA of each function-known genes was incorporated into an expression vector (pRc-CMV, etc.) and transfected into NIH3T3 cells by a common method. Transformed cells were isolated using the resistance to G-418 as an index and the expression of the transfected gene in each cell was investigated by Western blotting method to select a highly expressing line.
(§3) Cell viabilities were measured according to the following procedures.
(§4) 1) From the 2nd to the 11th rows of a 96-well plate were filled with DMEM (50 μl). The 12th row was filled with 100 μl of DMEM.
(§5) 2) The 1st row was filled with 98 μl of DMEM.
(§6) 3) Drugs (2 μl each) were added into the 1st row.
(§7) 4) Continuous double-dilution was conducted from the 1st to the 9th rows. Fifty μl were taken out from the 9th row and discarded. The plate was preserved in a CO2 incubator.
(§8) 5) Cells (each high-expressing cells and the parental cell line) were detached from the medium using a trypsin solution, suspended in 10% CS-DMEM and transferred to a test tube and cell numbers (cell/ml) were counted.
(§9) 6) The cells were diluted to a concentration of 1×10^5 cells/ml, and 50 μl of the cell suspension were added to the 1st to the 11th rows of the plate followed by gently stirring.
(§10) 7) The plate was transferred to the CO2 incubator and incubated for 3 to 4 days.
(§11) 8) MTT (5 mg/ml in PBS) (10 μl) was added to the 1st to the 12th rows of the plate and incubated in the CO2 incubator at 37° C. for 4 hours.
(§12) 9) A reaction stop solution (0.04N HCl in isopropanol) (150 μl) was added followed by mixing well and being allowed to stand at room temperature for about 2 hours.
(§13) 10) Coloration of formazan which was a metabolite of the MTT dye was measured using a microplate reader. The measurement wavelength was 574 nm and the reference wavelength was 655 nm. The 10th and the 11th rows of the plate were 100% controls and the 12th row was a 0% control.
(§14) As an index for the sensitivity of highly gene-expressing cells and the parental cell line to various drugs, each of the IC40 values thereof was specified and ratios of the IC40 values were calculated. […] After that, logarithmic values of ratios of IC40 values were calculated from each gene.

[2] = tested on: NIH3T3 cells overexpressing p53(wt); assay: MTT cell viability, p53(wt) overexpressing cells vs parental line; settings: p53(wt) high-expressing cells / parental cell line, 3 to 4 days
Description: as §1, §2, §3, §4, §5, §6, §7, §8, §9, §10, §11, §12, §13, §14

[3] = tested on: NIH3T3 cells overexpressing C/EBPa; assay: MTT cell viability, C/EBPa overexpressing cells vs parental line; settings: C/EBPa high-expressing cells / parental cell line, 3 to 4 days
Description: as §1, §2, §3, §4, §5, §6, §7, §8, §9, §10, §11, §12, §13, §14

[4] = tested on: NIH3T3 cells overexpressing C/EBPb; assay: MTT cell viability, C/EBPb overexpressing cells vs parental line; settings: C/EBPb high-expressing cells / parental cell line, 3 to 4 days
Description: as §1, §2, §3, §4, §5, §6, §7, §8, §9, §10, §11, §12, §13, §14

[5] = tested on: NIH3T3 cells overexpressing HSP9O; assay: MTT cell viability, HSP9O overexpressing cells vs parental line; settings: HSP9O high-expressing cells / parental cell line, 3 to 4 days
Description: as §1, §2, §3, §4, §5, §6, §7, §8, §9, §10, §11, §12, §13
As an index for the sensitivity of highly gene-expressing cells and the parental cell line to various drugs, each of the IC40 values thereof was specified and ratios of the IC40 values were calculated. FIG. 2 and FIG. 3 are the examples where ratios of IC40 values were calculated from a curve showing the dependency on the concentration of the chemical versus the viability. After that, logarithmic values of ratios of IC40 values were calculated from each gene.

[6] = tested on: NIH3T3 cells overexpressing RhoA-DN; assay: MTT cell viability, RhoA-DN overexpressing cells vs parental line; settings: RhoA-DN high-expressing cells / parental cell line, 3 to 4 days
Description: as §1, §2, §3, §4, §5, §6, §7, §8, §9, §10, §11, §12, §13, §14

[7] = tested on: NIH3T3 cells overexpressing T.Tn; assay: MTT cell viability, T.Tn overexpressing cells vs parental line; settings: T.Tn high-expressing cells / parental cell line, 3 to 4 days
Description: as §1, §2, §3, §4, §5, §6, §7, §8, §9, §10, §11, §12, §13, §14

Row | Compound | logarithmic value of ratio of IC40 values [1] | logarithmic value of ratio of IC40 values [2] | logarithmic value of ratio of IC40 values [3] | logarithmic value of ratio of IC40 values [4] | logarithmic value of ratio of IC40 values [5] | logarithmic value of ratio of IC40 values [6] | logarithmic value of ratio of IC40 values [7]
1 | CC(=O)OCOC(=O)CN(CC(=O)OCOC(C)=O)c1ccccc1OCCOc1ccccc1N(CC(=O)OCOC(C)=O)CC(=O)OCOC(C)=O [BAPTA-AM] | 0.00 | 0.00 | −0.62 | 0.81 | 0.60 | 0.09 | 0.11
2 | CNc1ccc2oc(C[C@H]3O[C@@]4(CC[C@H]3C)O[C@H]([C@H](C)C(=O)c3ccc[nH]3)[C@H](C)C[C@H]4C)nc2c1C(=O)O [A23187] | 0.04 | 0.30 | 0.00 | 0.25 | 0.28 | 0.03 | −0.22
3 | C=CC1=C(C)c2cc3[n-]c(cc4nc(cc5[n-]c(cc1n2)c(C)c5CCC(=O)O)C(CCC(=O)O)=C4C)c(C)c3C=C.[Cl-].[Cl-].[Sn+4] [SnPP] | −0.66 | −0.18 | 0.00 | −0.50 |  | 0.08 | 0.00
4 | CO[C@H]1[C@@H](OC)C[C@H](C)[C@@H](OC)C2=CC(=O)C=C(NC(=O)/C(C)=C/C=C\[C@H](OC)[C@@H](OC(N)=O)/C(C)=C/[C@@H]1C)C2=O [HMA, herbimycin A] | −0.30 | −0.22 | 0.00 | 0.45 | 0.40 | −0.10 | 0.00
5 | COc1ccc2c(c1)CC[C@@H]1[C@@H]2CC[C@]2(C)[C@@H](NCCCCCCN3C(=O)C=CC3=O)CC[C@@H]12 [U73122] | 0.08 | 0.11 | 0.00 | 0.10 | 0.18 | −0.35 | −0.26
6 | CCCC[C@@H](C=O)NC(=O)[C@H](CC(C)C)NC(=O)[C@H](CC(C)C)NC(C)=O [ALLN] (Ac-Leu-Leu-[Nle]-aldehyde) | 0.18 | 0.18 | 0.00 | 0.31 | 0.16 | 0.00 | 0.48
7 | ICE inhibitor-III [ICEin-3] | 0.08 | 0.23 | −0.46 | 0.35 | 0.22 | 0.00 | 0.30
8 | C=C1[C@@H](O)[C@@H]2O[C@]3(CC[C@H](/C=C/[C@@H](C)[C@@H]4CC(C)=C[C@@]5(O[C@H](C[C@@](C)(O)C(=O)O)CC[C@H]5O)O4)O3)CC[C@H]2O[C@@H]1[C@@H](O)C[C@H](C)[C@H]1O[C@@]2(CCCCO2)CC[C@H]1C [OA, okadaic acid] | −0.15 | −0.05 | 0.12 | 0.21 | 0.07 | 0.00 | −0.16
9 | sodium vanadate | 0.00 | 0.00 | −0.02 |  | 0.02 | −0.12 | 0.46
10 | CCCC[C@@H](C)/C=C(C)/C=C(\C)C(=O)NC1=C[C@@](O)(/C=C/C=C/C=C/C(=O)NC2=C(O)CCC2=O)[C@@H]2O[C@@H]2C1=O [Manumycin, manumycin] | 0.12 | 0.12 | 0.00 | 0.47 | −0.13 | −0.13 | 0.28
11 | C/C=C(/C)C(=O)O[C@H]1C(C)=C2[C@H]([C@@H]1OC(=O)CCCCCCC)[C@@](C)(OC(C)=O)C[C@H](OC(=O)CCC)[C@@]1(O)[C@H]2OC(=O)[C@@]1(C)O [Thapsigargin, thapsigargin] | 0.04 | −0.05 | −0.09 | 0.29 | 0.09 | 0.06 | 0.32
12 | O=[As]O [NaAsO2, sodium arsenite] | 0.30 | 0.20 | −0.40 | 0.41 | 0.10 | 0.00 | −0.05
13 | C[C@@H]1C[C@@H]([C@H](O)CC2CC(=O)NC(=O)C2)C(=O)[C@@H](C)C1 [CHX, cycloheximide] | 1.77 | 0.85 | 0.00 | 0.37 | 0.07 | 0.22 | 0.00
